Values quoted from earlier work in publication PMC11676910, “Manganese(II) Complexes with Non-Steroidal Anti-Inflammatory Drugs: Structure and Biological Activity” (International Journal of Molecular Sciences, 2024).
Where two headings read alike, the source gives them in different places.

What was measured:
[1] = test system: EB–DNA adduct (CT DNA); conditions: cited from earlier work
[2] = target: human serum albumin (HSA) (Homo sapiens, UniProt P02768); parameters: purchased Sigma–Aldrich Co; conditions: cited from earlier work
Chain of human serum albumin (HSA) (P02768 25-609): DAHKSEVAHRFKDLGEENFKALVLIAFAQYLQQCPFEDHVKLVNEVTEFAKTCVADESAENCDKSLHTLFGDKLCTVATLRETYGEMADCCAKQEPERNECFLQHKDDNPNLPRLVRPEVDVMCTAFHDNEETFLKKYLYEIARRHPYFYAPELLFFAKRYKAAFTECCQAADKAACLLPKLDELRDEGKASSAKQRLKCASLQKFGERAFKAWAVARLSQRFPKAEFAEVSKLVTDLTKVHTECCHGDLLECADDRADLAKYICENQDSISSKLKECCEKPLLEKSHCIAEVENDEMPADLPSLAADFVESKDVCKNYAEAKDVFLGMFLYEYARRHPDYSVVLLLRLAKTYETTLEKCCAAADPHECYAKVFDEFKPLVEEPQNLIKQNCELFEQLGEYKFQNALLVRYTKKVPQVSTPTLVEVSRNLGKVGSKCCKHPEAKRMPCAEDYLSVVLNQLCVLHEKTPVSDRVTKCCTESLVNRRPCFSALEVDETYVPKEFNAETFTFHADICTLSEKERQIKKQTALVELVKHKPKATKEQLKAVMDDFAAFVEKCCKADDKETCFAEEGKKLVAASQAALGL

[3] = target: bovine serum albumin (BSA) (Bos taurus, UniProt P02769); parameters: purchased Sigma–Aldrich Co; conditions: cited from earlier work
Chain of bovine serum albumin (BSA) (P02769 25-607): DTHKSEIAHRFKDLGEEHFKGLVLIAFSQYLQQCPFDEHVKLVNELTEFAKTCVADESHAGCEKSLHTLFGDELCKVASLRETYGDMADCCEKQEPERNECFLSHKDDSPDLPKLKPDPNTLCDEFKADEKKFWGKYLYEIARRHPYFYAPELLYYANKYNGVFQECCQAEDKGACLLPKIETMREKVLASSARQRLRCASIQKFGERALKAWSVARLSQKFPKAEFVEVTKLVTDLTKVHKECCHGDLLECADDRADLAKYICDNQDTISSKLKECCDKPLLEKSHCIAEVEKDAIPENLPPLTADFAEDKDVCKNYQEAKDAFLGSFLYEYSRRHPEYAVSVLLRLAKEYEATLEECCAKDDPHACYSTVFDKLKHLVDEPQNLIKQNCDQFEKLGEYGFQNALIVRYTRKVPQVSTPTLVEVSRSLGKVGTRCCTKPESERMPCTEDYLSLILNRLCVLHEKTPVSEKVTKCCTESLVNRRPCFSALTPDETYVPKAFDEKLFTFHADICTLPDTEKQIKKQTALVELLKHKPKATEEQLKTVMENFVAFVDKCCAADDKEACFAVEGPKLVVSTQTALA

[4] = test system: CT DNA; conditions: cited from earlier work
[5] = parameters: concentration or dose not given beside the values; conditions: free NSAID; cited from earlier work

SMILES | EB–DNA fluorescence quenching ΔI/Io (%) [1] | Stern–Volmer constant KSV (EB–DNA) [1] | quenching constant kq of the EB–DNA fluorescence [1] | HSA binding constant Κ(HSA) [2] | HSA quenching constant kq(HSA) [2] | BSA binding constant Κ(BSA) [3] | BSA quenching constant kq(BSA) [3] | ΔA/A0 (%) hyper-/hypo-chromism of UV band ([4]; first band listed in the cell) | Δλ (nm) shift of λmax ([4]; first band listed in the cell) | ΔA/A0 (%) hyper-/hypo-chromism of UV band ([4]; second band listed in the cell) | Δλ (nm) shift of λmax ([4]; second band listed in the cell) | % ABTS radical scavenging activity (ABTS%) [5]
O=C(O)c1ccccc1Nc1cccc(C(F)(F)F)c1 [Hfluf, flufenamic acid] | 67.0% | 6.34 (±0.30) × 10^5 M^–1 | 2.76 (±0.13) × 10^13 M^–1s^–1 | 1.79 (±0.17) × 10^5 M^–1 | 1.86 (±0.21) × 10^12 M^–1s^–1 | 1.06 (±0.04) × 10^6 M^–1 | 1.83 (±0.20) × 10^13 M^–1s^–1 | +40% | +10 nm | < −50% | 0 nm | 64.57 ± 0.43%
Cc1cccc(Nc2ccccc2C(=O)O)c1C [Hmef, mefenamic acid] | 80.0% | 1.58 (±0.06) × 10^5 M^–1 | 6.87 (±0.26) × 10^12 M^–1s^–1 | 1.32 (±0.15) × 10^5 M^–1 | 7.13 (±0.34) × 10^12 M^–1s^–1 | 1.35 (±0.22) × 10^5 M^–1 | 2.78 (±0.20) × 10^13 M^–1s^–1 | +10% | 0 nm |  |  | 66.32 ± 0.38%
Cc1ccc(Cl)c(Nc2ccccc2C(=O)O)c1Cl [Na meclf, sodium meclofenamate] | 80.1% | 8.20 (±0.26) × 10^4 M^–1 | 3.57 (±0.11) × 10^12 M^–1s^–1 | 1.05 (±0.03) × 10^6 M^–1 | 2.98 (±0.31) × 10^13 M^–1s^–1 | 1.78 (±0.11) × 10^6 M^–1 | 4.84 (±0.32) × 10^13 M^–1s^–1 | −12% | −1 nm | +5% | −2 nm | 59.48 ± 0.06%
Cc1c(Cl)cccc1Nc1ccccc1C(=O)O [Htolf, tolfenamic acid] | 74.0% | 1.15 (±0.04) × 10^6 M^–1 | 5.00 (±0.17) × 10^13 M^–1s^–1 | 3.12 (±0.25) × 10^5 M^–1 | 6.10 (±0.38) × 10^12 M^–1s^–1 | 1.60 (±0.14) × 10^5 M^–1 | 2.18 (±0.12) × 10^13 M^–1s^–1 | +40% | +5 nm | < −50% | −2 nm | 59.43 ± 0.33%
